The target of this test is T1, Angiotensin II Receptor (Rattus norvegicus, UniProt P25095).
T1 construct: A fresh membrane preparation obtained from rat's liver was used; from tissue; host or cells: rat liver, fresh membrane preparation
T1 sequence (P25095 1-359): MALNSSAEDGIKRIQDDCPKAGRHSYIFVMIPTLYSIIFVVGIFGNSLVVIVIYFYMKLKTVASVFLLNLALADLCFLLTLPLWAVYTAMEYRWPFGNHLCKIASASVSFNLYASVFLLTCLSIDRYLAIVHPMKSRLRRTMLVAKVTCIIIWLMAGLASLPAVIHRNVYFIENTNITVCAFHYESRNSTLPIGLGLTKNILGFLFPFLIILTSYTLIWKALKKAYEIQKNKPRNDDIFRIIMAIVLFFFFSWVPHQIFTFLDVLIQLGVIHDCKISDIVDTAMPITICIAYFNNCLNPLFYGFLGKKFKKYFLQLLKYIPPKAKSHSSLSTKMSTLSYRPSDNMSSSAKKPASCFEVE
Put plainly: Test on the Angiotensin II Receptor: displacement of 125I angiotensin II from a fresh rat liver membrane preparation. It counts as binding. Conditions: rat liver membranes; 125I angiotensin II (25,000 DPM/tube); Tris buffer pH 7.4; 25° C. for 150 minutes; 7 concentrations; read-out: 50% inhibiting concentration (IC50), concentration necessary to displace 50% of the radioactivity specifically fixed on the receptor. The protocol: A fresh membrane preparation obtained from rat's liver was used and the tissue was ground in a polytron in a Tris 50mMpH 7.4 buffer. The grinding was followed by 3 centrifugations at 30,000 g for 15 minutes with intermediate collection of pellets in the Tris buffer pH 7.4. The last pellets were suspended in an incubation buffer (Tris 20 mM, NaCl […], KCl 10 mM, glucose 5 mM, MgCl2 10 mM, PMSF 0.3 mM, bacitracin 0.1 mM, BSA 0.2%). The 2 ml of aliquoted fractions were distributed in hemolysis tubes and ^125 I angiotensin II (25,000 DPM/tube) and the product to be studied were added. The product was first tested at 3×10^-5 M in triplicate. When the product to be tested displaced more than 50% of the radioactivity specifically linked to the receptor, it was tested again in a range of 7 concentrations to determine the concentration which inhibited 50% of the radioactivity specifically linked to the receptor. In this way, the 50% inhibiting concentration was determined.
The non-specific bond was determined by the addition of the product of Example 94 of the European Patent No. 0,253,310, at 10^-5 M (in triplicate). Incubation took place at 25° C. for 150 minutes, followed by returning to a water bath at 0° C. for 5 minutes, vacuum filtration, rinsing with Tris buffer pH 7.4 and counting the radioactivity in the presence of scintilling Triton. […]

SMILES strings stand for the structures.

With `CCCCc1nc(Cl)c(CC(=O)O)c(Cc2ccc(-c3ccccc3C(=O)O)cc2)n1` [Example 8, 2-butyl-4-[(2'-carboxy-(1,1'-biphenyl)-4-yl)-methyl)-6-chloro-5-pyrimidineacetic acid], the IC50 turned out to be 242 nM.

The values are drawn from patent US5474996A, “Pyrimidine derivatives” (Roussel Uclaf, priority 1991, dated 1995).
